One data set deals with Vero cells. Nature of the data set: Toxicity on the same plates (ATPlite cell viability). Conditions: Vero cells, same plates as DENV-2 antiviral assay. In general terms: Cellular ATP, detected with luciferase, serves as a proxy for viable cell number.
The next data set relates to DENV-1 strain TC974 #666. Nature of the data set: Tetravalent RT-qPCR assay, serotype 1. As to conditions: Dengue virus, DENV1, 72 h; RT-qPCR serotype 1 TC974#666, Protocol A, Vero cells, day 3. Type of data set: cell-based. The procedure: (§1) The antiviral activity of the compounds of the invention was tested against DENV-1 strain TC974 #666 (NCPV), DENV-2 strain 16681, DENV-3 strain H87 (NCPV) and DENV-4 strain H241 (NCPV) in a RT-qPCR assay. Therefore, Vero cells were infected with either DENV-1, or -2, or -3, or -4 in the presence or absence of test compounds. At day 3 post-infection, the cells were lysed and cell lysates were used to prepare cDNA of both a viral target (the 3′UTR of DENV; Table 2) and cellular reference gene (β-actin, Table 2). Subsequently, a duplex real time PCR was performed on a Lightcycler480 instrument. The generated Cp value is inversely proportional to the amount of RNA expression of these targets. Inhibition of DENV replication by a test compound results in a shift of Cp's for the 3′UTR gene. On the other hand, if a test compound is toxic to the cells, a similar effect on β-actin expression will be observed. The comparative ΔΔCp method is used to calculate EC50, which is based on the relative gene expression of the target gene (3′UTR) normalized with the cellular housekeeping gene (β-actin). In addition, CC50 values are determined based on the Cp values acquired for the housekeeping gene β-actin.
(§2) The culture medium consisted of minimal essential medium supplemented with 2% of heat-inactivated fetal calf serum, 0.04% gentamycin (50 mg/mL) and 2 mM of L-glutamine. Vero cells, obtained from ECACC, were suspended in culture medium and 75 μL/well was added in 96-well plates (10000 cells/well), which already contain the antiviral compounds. […] In addition, each plate contains wells which are assigned as virus controls (containing cells and virus in the absence of compound) and cell controls (containing cells in the absence of virus and compound). Once the cells were added in the plates, the plates were incubated in a fully humidified incubator (37° C., 5% CO2) until the next day. Dengue viruses serotype-1, 2, 3 and 4 were diluted in order to obtain a Cp of ˜22-24 in the assay. Therefore, 25 μL of virus suspension was added to all the wells containing test compound and to the wells assigned as virus control. In parallel, 25 μL of culture medium was added to the cell controls. Next, the plates were incubated for 3 days in a fully humidified incubator (37° C., 5% CO2). After 3 days, the supernatant was removed from the wells and the cells were washed twice with ice-cold PBS (˜100 μL). The cell pellets within the 96-well plates were stored at −80° C. for at least 1 day. Next, RNA was extracted using the Cells-to-CT™ lysis kit, according to the manufacturer's guideline (Life Technologies). The cell lysates can be stored at −80° C. or immediately used in the reverse transcription step.
(§3) In preparation of the reverse transcription step, mix A (table 3A) was prepared and 7.57 μL/well was dispensed in a 96-well plate. After addition of 5 μL of the cell lysates, a five minute denaturation step at 75° C. was performed (table 3B). Afterwards, 7.43 μL of mix B was added (table 3C) and the reverse transcription step was initiated (table 3D) to generate cDNA.
(§4) Finally, a RT-qPCR mix was prepared, mix C (table 4A), and 22.02 μL/well was dispensed in 96-well LightCycler qPCR plates to which 3 μL of cDNA was added and the qPCR was performed according to the conditions in table 4B on a LightCycler 480.
(§5) Using the LightCycler software and an in-house LIMS system, dose response curves for each compound were calculated and the half maximal effective concentration (EC50) and the half maximal cytotoxic concentration (CC50) were determined (Tables 5-8).
Background: In qPCR the cycle at which signal appears reflects the starting amount.

Another data set deals with DENV-4 strain H241. Nature of the data set: Tetravalent RT-qPCR assay, serotype 4. Type of data set: cell-based. Conditions: Dengue virus, DENV4, 72 h; RT-qPCR serotype 4 H241, Protocol A, Vero cells, day 3. The procedure:
as §1, §2, §3, §4, §5

The next data set relates to DENV-3 strain H87. Nature of the data set: Tetravalent RT-qPCR assay, serotype 3. Format: cell-based. Conditions: Dengue virus, DENV3, 72 h; RT-qPCR serotype 3 H87, Protocol A, Vero cells, day 3. The protocol:
as §1, §2, §3, §4, §5

For the next data set, the system named is DENV-2 strain 16681. Nature of the data set: Tetravalent RT-qPCR assay, serotype 2. Type of data set: cell-based. As to conditions: Dengue virus, DENV2, 72 h; RT-qPCR serotype 2 16681, Protocol A, Vero cells, day 3. The procedure:
as §1, §2, §3, §4, §5

Data set [1] is described as follows: Cytotoxicity in RT-qPCR assay (Cp of housekeeping gene β-actin). Format: cell-based. Conditions: African green monkey. The protocol:
as §1, §2, §5

Another data set relates to DENV-2 16681 strain. Description: DENV-2 antiviral assay (eGFP-labeled virus in Vero cells). Type of data set: cell-based, Dengue virus. Conditions: DENV-2 16681 eGFP, MOI 0.5, 3 days. The protocol: The antiviral activity of all the compounds of the invention was tested against the DENV-2 16681 strain which was labeled with enhanced green fluorescent protein (eGPF). The culture medium consists of minimal essential medium supplemented with 2% of heat-inactivated fetal calf serum, 0.04% gentamycin (50 mg/mL) and 2 mM of L-glutamine. Vero cells, obtained from ECACC, were suspended in culture medium and 25 μL was added to 384-well plates (2500 cells/well), which already contain the antiviral compounds. Typically, these plates contain a 5-fold serial dilution of 9 dilution steps of the test compound at 200 times the final concentration in 100% DMSO (200 nL). […] Finally, each plate contains wells which are assigned as virus controls (containing cells and virus in the absence of compound), cell controls (containing cells in the absence of virus and compound) and medium controls (containing medium in the absence of cells, virus and compounds). To the wells assigned as medium control, 25 μL of culture medium was added instead of Vero cells. Once the cells were added to the plates, the plates were incubated for 30 minutes at room temperature to allow the cells to distribute evenly within the wells. Next, the plates were incubated in a fully humidified incubator (37° C., 5% CO2) until the next day. Then, DENV-2 strain 16681, labeled with eGFP, was added at a multiplicity of infection (MOI) of 0.5. Therefore, 15 μL of virus suspension was added to all the wells containing test compound and to the wells assigned as virus control. In parallel, 15 μL of culture medium was added to the medium and cell controls. Next, the plates were incubated for 3 days in a fully humidified incubator (37° C., 5% CO2). At the day of the read out, the eGFP fluorescence was measured using an automated fluorescence microscope at 488 nm (blue laser). Using an in-house LIMS system, inhibition dose response curves for each compound were calculated and the half maximal effective concentration (EC50) was determined. Therefore, the percent inhibition (I) for every test concentration is calculated using the following formula: I=100*([…])/(SVC−SCC); ST, SCC and SVC are the amount of eGFP signal in the test compound, cell control and virus control wells, respectively. The EC50 represents the concentration of a compound at which the virus replication is inhibited with 50%, as measured by a 50% reduction of the eGFP fluorescent intensity compared to the virus control. The EC50 is calculated using linear interpolation (Table 1).

The nature of data set [2]: Toxicity on the same plates (ATPlite cell viability). Conditions: African green monkey, CC50, Vero cells, same plates as DENV-2 antiviral assay.
Setting [3] is: RT-qPCR serotype 1 TC974#666, Protocol A.
The mark [4] stands for this setting: RT-qPCR serotype 2 16681, Protocol A.
Where [5] appears, read: RT-qPCR serotype 3 H87, Protocol A.
Where [6] appears, read: RT-qPCR serotype 4 H241, Protocol A.
[7] abbreviates: Dengue virus, DENV2, Vero, 72 h.

Results on eight compounds are retold here after patent US10646469B2, “Substituted indole derivatives as dengue viral replication inhibitors” (Janssen Pharmaceuticals, Inc., priority 2016, dated 2020).

With `COc1cc(NC(C(=O)c2c[nH]c3c(C)cc(C(F)(F)F)cc23)c2ccc(F)cc2OC)cc(OCCO)c1` (single isomer, unassigned) [Compound 4B, 2-(4-fluoro-2-methoxyphenyl)-2-((3-(2-hydroxyethoxy)-5-methoxyphenyl)amino)-1-(7-methyl-5-(trifluoromethyl)-1H-indol-3-yl)ethanone], the CC50 with Vero cells amounted to 2500 nM. Also, the EC50 in the data set with DENV-1 strain TC974 #666 was 1.4 nM; in the data set on DENV-4 strain H241, 51 nM; in the data set on DENV-3 strain H87 it was 9.2 nM; in the data set with DENV-2 strain 16681 it was 0.36 nM; with DENV-2 16681 strain, 0.46 nM. For the same compound, the CC50 at 3 days in data set [1] (setting [3]) is over 2500 nM; in data set [1] (setting [4]), over 2400 nM; in data set [1] (setting [5]), over 2500 nM; in data set [1] (setting [6]) it was over 2100 nM.
With `COc1cc(NC(C(=O)c2c[nH]c3cc(F)c(OC(F)(F)F)cc23)c2ccc(F)cc2OC)cc(OCCO)c1` (single isomer, unassigned) [Compound 7B, 2-(4-fluoro-2-methoxyphenyl)-1-(6-fluoro-5-(trifluoromethoxy)-1H-indol-3-yl)-2-((3-(2-hydroxyethoxy)-5-methoxyphenyl)amino)ethanone], the CC50 in the data set on Vero cells came out at 2400 nM. Moreover, the EC50 came to 1.2 nM in the data set on DENV-1 strain TC974 #666; 52 nM in the data set with DENV-4 strain H241; 8.2 nM with DENV-3 strain H87; 0.55 nM with DENV-2 strain 16681; 0.53 nM in the data set with DENV-2 16681 strain. Besides, the cytotoxic concentration (CC50) at 3 days in data set [1] (setting [3]) is over 2500 nM; in data set [1] (setting [4]) it was over 2500 nM; in data set [1] (setting [5]), over 2500 nM; in data set [1] (setting [6]) it was 2100 nM.
In the data set with Vero cells, `COc1cc(NC(C(=O)c2c[nH]c3ccc(C(F)(F)F)cc23)c2ccc(Cl)cc2OC)cc(OCCO)c1` (single isomer, unassigned) [Compound 9B, 2-(4-chloro-2-methoxyphenyl)-2-((3-(2-hydroxyethoxy)-5-methoxyphenyl)amino)-1-(5-(trifluoromethyl)-1H-indol-3-yl)ethanone] yielded a CC50 of 3300 nM. For the same compound, the EC50 in the data set on DENV-1 strain TC974 #666 stood at 0.88 nM; in the data set with DENV-4 strain H241, 50 nM; with DENV-3 strain H87 it was 6.3 nM; in the data set on DENV-2 strain 16681, 0.27 nM; in the data set with DENV-2 16681 strain, 0.18 nM. Further, the CC50 at 3 days in data set [1] (setting [3]) is over 2000 nM; in data set [1] (setting [4]), 3400 nM; in data set [1] (setting [5]), over 2500 nM; in data set [1] (setting [6]), 2700 nM.
As for `COc1cc(NC(C(=O)c2c[nH]c3ccc(OC(F)(F)F)cc23)c2ccc(Cl)cc2OC)cc(OCCO)c1` (single isomer, unassigned) [Compound 13A, 2-(4-chloro-2-methoxyphenyl)-2-((3-(2-hydroxyethoxy)-5-methoxyphenyl)amino)-1-(5-(trifluoromethoxy)-1H-indol-3-yl)ethanone], the EC50 with DENV-1 strain TC974 #666 was 0.51 nM; with DENV-4 strain H241 it was 20 nM; in the data set with DENV-3 strain H87, 3.5 nM; with DENV-2 strain 16681, 0.2 nM; in the data set with DENV-2 16681 strain, 0.14 nM. Moreover, the CC50 at 3 days was 1200 nM in data set [1] (setting [3]), 2600 nM in data set [1] (setting [4]), over 2500 nM in data set [1] (setting [5]) and over 2500 nM in data set [1] (setting [6]).
As to `COc1cc(NC(C(=O)c2c[nH]c3cc(OC)c(OC(F)(F)F)cc23)c2ccc(Cl)cc2OC)cc(OCCO)c1` (racemic) [Compound 14, 2-(4-chloro-2-methoxyphenyl)-2-((3-(2-hydroxyethoxy)-5-methoxyphenyl)amino)-1-(6-methoxy-5-(trifluoromethoxy)-1H-indol-3-yl)ethanone], it took 3.5 µM to reach half-maximal cytotoxicity in data set [2] (CC50). In the data set with DENV-2 16681 strain (setting [7]), this compound showed an EC50 of 0.34 nM.
For `COc1cc(NC(C(=O)c2c[nH]c3ccc(C(F)(F)F)cc23)c2ccc(F)cc2OC)cc(OCCO)c1` (single isomer, unassigned) [Compound 1B, 2-(4-fluoro-2-methoxyphenyl)-2-((3-(2-hydroxyethoxy)-5-methoxyphenyl)amino)-1-(5-(trifluoromethyl)-1H-indol-3-yl)ethanone], the EC50 in the data set with DENV-1 strain TC974 #666 is 1.3 nM; in the data set with DENV-4 strain H241 it was 50 nM; in the data set with DENV-3 strain H87, 14 nM; in the data set with DENV-2 strain 16681 it was 0.41 nM; in the data set on DENV-2 16681 strain, 0.62 nM. Also, the CC50 at 3 days in data set [1] (setting [3]) came out at 3300 nM; in data set [1] (setting [4]), 3500 nM; in data set [1] (setting [5]) it was 3200 nM; in data set [1] (setting [6]), 2600 nM.
The compound `COc1cc(NC(C(=O)c2c[nH]c3cc(OC)c(C(F)(F)F)cc23)c2ccc(Cl)cc2OC)cc(OCCO)c1` (racemic) [Compound 10, 2-(4-chloro-2-methoxyphenyl)-2-((3-(2-hydroxyethoxy)-5-methoxyphenyl)amino)-1-(6-methoxy-5-(trifluoromethyl)-1H-indol-3-yl)ethanone] showed a CC50 in data set [2] of 3.2 µM. The compound further came in with an EC50 with DENV-2 16681 strain (setting [7]) of 0.27 nM.
The like results for `COc1cc(NC(C(=O)c2c[nH]c3cc(F)c(C(F)(F)F)cc23)c2ccc(F)cc2OC)cc(OCCO)c1` (racemic) [Compound 3, 2-(4-fluoro-2-methoxyphenyl)-1-(6-fluoro-5-(trifluoromethyl)-1H-indol-3-yl)-2-((3-(2-hydroxyethoxy)-5-methoxyphenyl)amino)ethanone] were, in that order, 3 µM and 0.99 nM.

The term CC50 denotes the concentration that lowers cell viability or growth by half. High values mean better tolerance by the cells, low ones harm at low concentration. As usually defined, the EC50 is the concentration giving half of the maximal effect. High values mean weaker potency, low ones greater potency.
